Ends that are not written are not given here. Peptide text beside a SMILES is read from it.
System: 293T-ACE2^+ cells
Assay: Cytotoxicity by CCK-8 in 293T-ACE2^+ cells
Assay type: cell-based, human
Conditions: 1 nM to 100 μM, 48 h; FIGS. 9A-9C, 10A-10C
Description: ; • (3) The cells were washed once with PBS after discarding supernatant after culturing, 120 μL of cell counting kit-8 (CCK-8) working solution (CCK-8 working solution is obtained by mixing CCK8 stock solution and complete medium in a volume ratio of 1:10, CCK8 stock solution was purchased from Dojindo Molecular Technologies) was added to each well. After mixing, the system was incubated at 37° C. for 3 h, then the absorbance values at 450 nm and 630 nm (reference wavelength) were detected to calculate the cell viability.

Molecule | effect on 293T-ACE2^+ cells viability (CCK-8)
GDLFDDSNLDPFRDRISTRR [KVp-R14N] | not significant
CC(C)C[C@H](NC(=O)[C@@H](NC(=O)[C@H](CO)NC(=O)[C@H](CO)NC(=O)[C@H](CC(=O)O)NC(=O)[C@H](Cc1ccccc1)NC(=O)[C@@H](NC(=O)[C@H](CC(=O)O)NC(=O)[C@H](CCCNC(=N)N)NC(=O)[C@@H]1CCCN1C(=O)[C@H](Cc1ccc(O)cc1)NC(=O)[C@H](Cc1ccc(O)cc1)NC(=O)[C@@H](NC(=O)CNC(=O)[C@H](CC(=O)O)NC(=O)CNC(=O)[C@@H]1CCCN1C(=O)[C@@H]1CCCN1C(=O)[C@@H]1CCCN1C(=O)[C@@H]1CCCN1C(=O)[C@H](CS)NC(=O)[C@@H](N)CS)C(C)C)C(C)C)C(C)C)C(=O)N[C@@H](CC(=O)O)C(=O)N[C@@H](CO)C(=O)N[C@H](C(=O)N[C@@H](CCC(N)=O)C(=O)N[C@@H](CCCNC(=N)N)C(=O)O)[C@@H](C)O [KVp-N1] (H-CCPPPPGDGVYYPRDVFDSSVLDSTQR-OH) | not significant
CC[C@H](C)[C@H](NC(=O)[C@H](CCCNC(=N)N)NC(=O)[C@H](CC(=O)O)NC(=O)[C@H](CCCNC(=N)N)NC(=O)[C@H](Cc1ccccc1)NC(=O)[C@@H]1CCCN1C(=O)[C@H](CC(=O)O)NC(=O)[C@H](CC(C)C)NC(=O)[C@H](CC(N)=O)NC(=O)[C@H](CO)NC(=O)[C@H](CC(=O)O)NC(=O)[C@H](CC(=O)O)NC(=O)[C@H](Cc1ccccc1)NC(=O)[C@H](CC(C)C)NC(=O)[C@H](CC(=O)O)NC(=O)CNC(=O)[C@@H]1CCCN1C(=O)[C@@H]1CCCN1C(=O)[C@@H]1CCCN1C(=O)[C@@H]1CCCN1C(=O)[C@H](CS)NC(=O)[C@@H](N)CS)C(=O)N[C@@H](CO)C(=O)N[C@H](C(=O)N[C@@H](CCCNC(=N)N)C(=O)N[C@@H](CCCNC(=N)N)C(=O)O)[C@@H](C)O [KVp-R14] (H-CCPPPPGDLFDDSNLDPFRDRISTRR-OH) | not significant
GDGVYYPRDVFDSSVLDSTQR [KVp-N1N] | not significant

Target: spike protein of the SARS-CoV-2 pseudovirus (PSV) (SARS-CoV-2), P0DTC2
Assay: cell-based or functional assay
Conditions: not given

Molecule | neutralization ability to SARS-CoV-2 pseudovirus [%]
CCPPPPGDLFDDSNLDPFRDRISTRR (modifications not checked) [polypeptide KVp-R14] | 50
CCPPPPGDGVYYPRDVFDSSVLDSTQR (modifications not checked) [polypeptide KVp-N1] | 50

From patent publication US20260234196A1 (priority 2021, published 2026)
